Assay [1] concerns L. major spt2^− promastigotes. Briefly: microbe, parasite or virus in culture. The format is cell-based, Leishmania major. The method, then:
(§1) Log phase L. major LV39 WT and spt2 promastigotes were inoculated at 1.0×10^5 cells/ml and culture densities were determined 48 hours later.
(§2) Wild type (WT) L. major LV39 clone 5 (Rho/SU/59/P), FV1 (MOHM/IL/80/Friedlin virulent clone 1), spt2^− (Δspt2::HYG/Dspt2::PAC), ads1^− (Δads1::HYG/Dads1::SAT), and spt2^−/+SPT2 (Δspt2::HYG/Dspt2::PAC/+pXG-SPT2) cells were grown in M199 with 10% FBS and supplements as described [Zhang, et al., 2003; Kapler, et al., 1990]. For growth inhibition assays, promastigotes were inoculated at 1.0×10^5 cells/ml (in T25 flasks, 5 ml of medium per flask) in various concentrations of drugs. All cultures contained equivalent amount of DMSO or methanol (0.1% or less, from drug stocks). After 48 or 96 (for ads1^− only) hours, culture densities were determined using a Coulter counter (Z1, Beckman) and effects of drugs on growth were assessed in relative to cultures grown in the absence of drugs.

The test system of assay [2] is L. major LV39 WT promastigotes. Briefly: microbe, parasite or virus in culture. The assay is classed as cell-based, Leishmania major. The method, then: as §1, §2
A classical isobologram was constructed by plotting EC50s of drugs either alone or in combination.

Assay [3] relates to L. major ads1^− promastigotes. As to the kind of experiment: Growth inhibition assay, EPL-null ads1^− mutant versus FV1 WT. The format is cell-based, Leishmania major. The settings on record: 96 hours for ads1^−. The method, then:
as §2

Assay [4] has as its system L. major LV39 WT promastigotes. As to the kind of experiment: Composition of free sterols by GC/MS, WT promastigotes. The format is cell-based, Leishmania major. Particulars: for 5-dehydroepisterol (%) / 14-methylfecosterol (%) / Cholesterol (%) / Episterol (%) / Ergosterol (%) / Total sterols/cell: 48 hours. The method, then:
(§3) Log phase L. major LV39 WT and spt2^− promastigotes were grown in the presence or absence of ITZ or CLT. Culture densities were determined 48 hours later and total lipids were extracted and the composition of free sterols was determined by GC/MS as described in Materials and Methods. ND: not detectable. Each experiment was repeated at least 3 times and results from one representative set were shown.
(§4) Here WT and spt2^− parasites were grown in various concentrations of ITZ (0.001 nM to 1 μM) or CLT (10 nM to 5 μM). Effects of ITZ and CLT on growth, sterol composition and DRM were analyzed after 48 hours. Basically, culture densities were determined using a particle counter and drugs' effects on growth were assessed in comparison to control cells (no drug); sterol lipids were extracted and analyzed by GC/MS and the percentage of 14-methylfecosterol (among all detectable sterol lipids) was used to reflect changes in sterol composition (see Table 2). DRMs were also isolated and the percentage of GP63 that were insoluble at 4° C. was used as an indicator for the integrity of DRM (see FIG. 2). Two to four independent experiments were performed and the averaged results were plotted in FIG. 3.
(§5) Total lipids were extracted using the Folch's method [Folch, et al., 1957]. Briefly, promastigotes were harvested by centrifugation and washed once with PBS. Pellets were resuspended in chloroform:methanol (2:1) at 1.0×10^8 cells/ml with the addition of cholesta-3,5-diene (Sigma-Aldrich, FW 368.7) at 0.5 mg/10^8 cells (6.6×10^7/cell). After vortexing for 30 s, cell debris was removed by centrifugation (1000 g for 10 min) and samples were washed with 0.2 volume of 0.9% NaCl. After centrifugation, supernatants were removed and the organic phase solutions were dried under a stream of nitrogen. Samples were then dissolved in chloroform:methanol (1:2) at 1.0×10^9 cells/ml.
(§6) Electron impact gas chromatography/mass spectrometry (GC/MS) analyses of sterol lipids were performed on a Finnigan (San Jose, Calif.) SSQ-7000 single-stage quadrupole mass spectrometer with a Varian (Walnut Creek, Calif.) 3400 GC, which is controlled by Finnigan ICIS software operated on a DEC alpha station. The extracts in solution […] were injected in a splitless mode and analyzed by GC on a Restek (Bellefonte, Pa.) RTX-5 column (15 m, 0.33 mm id, […]). The initial temperature of GC was set at 80° C. for 1 min, increased to 220° C. at a rate of 50° C./min, and then raised to a final temperature of 280° C. at a rate of 10° C./min. The temperatures of the injector, transfer line of the GC column, and of the ion-source were set at 280° C., 280° C., and 240° C., respectively. The full scan mass spectra (50 to 500 Dalton) were acquired at a rate of 1 scan/0.25 Sec.

Assay [5] relates to L. major spt2^− promastigotes. As to the kind of experiment: Composition of free sterols by GC/MS, spt2^− promastigotes. The assay is classed as cell-based, Leishmania major. Particulars: 48 hours. The method, then:
as §3, §4, §5, §6

For assay [6], the system named is Leishmania major LV39 clone 5 promastigotes. Briefly: Microtiter screen for synergy drugs (cellular ATP, luciferase based). The assay is classed as cell-based. The settings on record: follow-up of class d hits.
Excerpt: Following inoculation, parasites were allowed to grow until late logarithmic phase. […] Parasites were inoculated without any drug, singly with the two prototypic synergistic drugs myriocin or itraconazole, or both drugs, at varying concentrations.
Where [7] appears, read: Leishmania major, 48 h, read-out: EC50 in spt2^−.
Where [8] appears, read: Leishmania major, 48 h, LV39 WT promastigotes, 48 hours; read-out: EC50 in WT.
Setting [9] is: spt2^− promastigotes, 48 hours; read-out: EC50 in spt2^−.
Setting [10] is: LV39 WT promastigotes, 48 hours; read-out: EC50 in WT.

“And” between values parts separate entries of the source, which are not always exact repeats. Equal values may be shown once. “Also recorded” adds a separate entry of the source. Read-outs that look alike come from different tables or passages of the source. Starred links: 1 amine or outer side, 2 acyl side, 3 side chain; linkers in the order of their positions; H or OH if unused. Non-standard residues stand in square brackets, D forms with d. Residues, ends and D or L forms follow the SMILES beside them. X1 = CC[C@@H](C)[C@@H](O[*:1])C(=O)[*:2]; NMeVal(β-OH) = CN[C@H](C(=O)O)C(C)(C)O; NMeF = CN[C@@H](Cc1ccccc1)C(=O)O; aIle = CC[C@@H](C)[C@H](N)C(=O)O; NMeV = CN[C@H](C(=O)O)C(C)C

Usually EC50 stands for the concentration giving half of the maximal effect.

Turning to `CCCCCCCCCCCCCCCCCCOCC(COP(=O)([O-])OCC[N+](C)(C)C)OC` (racemic) [Edelfosine, 1-O-octadecyl-2-O-methyl-rac-glycero-3-phosphocholine], the EC50 in assay [1] (setting [7]) was determined as 5400 nM; in assay [2] (setting [8]) it was 1500 nM. The “EC50 (WT)/EC50 (spt2^−)” value in assay [1] (ratio) was found to be 0.28. The “Selectivity against spt2^− parasites (in words)” value (shortened to “Selectivity”) in assay [1] (spt2^− versus LV39 WT) is listed as “failed to show strong selectivity”. In addition, the “Sensitivity of ads1^− mutant in comparison to FV1 WT” value (shortened to “Sensitivity of ads1^− mutant”) in assay [3] was “very similar EC50s; also recorded: little or no selectivity”.
`OC1(c2ccc(-c3ccccc3)cc2)CN2CCC1CC2` (stereo not drawn) [3-(Biphenyl-4-yl)-3-hydroxyquinuclidine]: the EC50 in assay [1] (setting [7]) came to 1120 nM; in assay [2] (setting [8]), 1580 nM. Moreover, the “EC50 (WT)/EC50 (spt2^−)” value in assay [1] (ratio) amounted to 1.4. Further, the “Selectivity” value in assay [1] (spt2^− versus LV39 WT) is on record as “did not cause the extreme hypersensitivity”.
Take `C[C@@H]1[C@H](O)[C@@H](C)/C=C/C=C/C=C/C=C/C=C/C=C/C=C/[C@H](O[C@@H]2O[C@H](C)[C@@H](O)[C@H](N)[C@@H]2O)C[C@@H]2O[C@](O)(C[C@@H](O)C[C@@H](O)[C@H](O)CC[C@@H](O)C[C@@H](O)CC(=O)O[C@H]1C)C[C@H](O)[C@H]2C(=O)O` [Amphotericin B]: the “EC50 (WT)/EC50 (spt2^−)” value in assay [1] (ratio) is 1.9. The figures for the EC50 in assay [1] (setting [9]) and in assay [2] (setting [10]) were 22 nM and 41 nM, respectively. The “Selectivity” value in assay [1] (spt2^− versus LV39 WT) is recorded as “nearly equally well”.
Regarding `CC[C@@H](C)[C@@H]1NC(=O)[C@@H]2CCCN2C(=O)[C@H](Cc2ccccc2)N(C)C(=O)[C@H](Cc2ccccc2)NC(=O)[C@H](C(C)C)N(C)C(=O)[C@@H]([C@H](C)CC)OC(=O)[C@H](C(C)(C)O)N(C)C(=O)[C@H](CC(C)C)NC(=O)[C@H](C(C)C)N(C)C1=O` [Aureobasidin A] (cyclo(F[NMeF]P[aIle][NMeV]L[NMeVal(β-OH)][X1][NMeV])), the “EC50 (WT)/EC50 (spt2^−)” value in assay [1] (ratio) is given as 0.90. In addition, the EC50 turned out to be 620 nM in assay [1] (setting [9]) and 560 nM in assay [2] (setting [10]). Further, the “Sensitivity of ads1^− mutant” value in assay [3] is on record as “very similar EC50s”.
For the compound `CC(C)[C@@H]1NC(=O)[C@H](Cc2ccccc2)NC(=O)[C@@H]2NC(=O)[C@H](Cc3ccccc3)NC(=O)[C@@H]3CCCN3C(=O)CNC(=O)[C@H](Cc3ccccc3)NC(=O)[C@@H]3CNCCCC[C@@H](C(=O)O)NC(=O)[C@@H]4NC(=O)[C@H](CC(N)=O)NC(=O)CNC(=O)[C@H]([C@@H](O)C(=O)O)NC(=O)[C@H](CSC[C@@H](NC(=O)[C@H](CCC(N)=O)NC(=O)[C@H](CCCNC(=N)N)NC(=O)[C@@H](N)CS[C@H]4C)C(=O)N[C@@H](CS[C@H]2C)C(=O)N3)NC1=O` [Cinnamycin], the “EC50 (WT)/EC50 (spt2^−)” value in assay [1] (ratio) amounted to 1.0. Moreover, the EC50 in assay [1] (setting [9]) and in assay [2] (setting [10]) was 3100 nM each time. Also, in assay [1] (spt2^− versus LV39 WT), the “Selectivity” value is “nearly equally well”.
With `Clc1ccccc1C(c1ccccc1)(c1ccccc1)n1ccnc1` [Clotrimazole], in assay [4] (WT + 0.2 μM CLT), the “5-dehydroepisterol (%)” value came to 63.7%, the “14-methylfecosterol (%)” value is given as 9.9%, the “Cholesterol (%)” value worked out at 4.5% and the “Episterol (%)” value was 17.5%. Besides, in assay [4] (WT + 0.2 μM CLT), the “Ergosterol (%)” value is listed as 4.4% and the Total sterols/cell was 3.3 × 10^8 /cell. In assay [4] (WT + 0.5 μM CLT), the “5-dehydroepisterol (%)” value is listed as 42.0%, the “14-methylfecosterol (%)” value came to 47.1%, the “Cholesterol (%)” value is on record as 3.9% and the “Episterol (%)” value came out at 5.1%. Also, in assay [4] (WT + 0.5 μM CLT), the “Ergosterol (%)” value is 1.9% and the Total sterols/cell is on record as 2.2 × 10^8 /cell. Moreover, the “Growth (%)” value in assay [1] (spt2^− + 0.2 μM CLT, 48 hours) is 93.8%. For the same compound, in assay [1] (spt2^− + 0.5 μM CLT, 48 hours), the “Growth (%)” value turned out to be 62.8%. Also, in assay [5] (spt2^− + 0.2 μM CLT), the “5-dehydroepisterol (%)” value came to 44.1%, the “14-methylfecosterol (%)” value was 21.5%, the “Cholesterol (%)” value is reported as 20.2% and the “Episterol (%)” value is 10.7%. In assay [5] (spt2^− + 0.2 μM CLT), the “Ergosterol (%)” value is on record as 3.5% and the Total sterols/cell is given as 3.5 × 10^8 /cell. For the same compound, in assay [5] (spt2^− + 0.5 μM CLT), the “5-dehydroepisterol (%)” value is listed as 23.9%, the “14-methylfecosterol (%)” value amounted to 50.3%, the “Cholesterol (%)” value is 21.1% and the “Episterol (%)” value is 3.5%. Moreover, in assay [5] (spt2^− + 0.5 μM CLT), the “Ergosterol (%)” value was found to be 1.2% and the Total sterols/cell was 3.1 × 10^8 /cell. In assay [2], the “CLT concentration needed to achieve any noticeable effects on growth, sterol composition, or DRMs” value is given as above 100 nM; the “Growth (%)” value is 76.9% and 78.7%.
On to `CC(=O)N1CCN(c2ccc(OCC3COC(Cn4ccnc4)(c4ccc(Cl)cc4Cl)O3)cc2)CC1` (stereo not drawn) [Ketoconazole], for which, in assay [4] (LV39 WT, 5-10 nM), the “Effect on sterol composition” value is “completely altered the sterol composition”. In addition, the EC50 in assay [1] (setting [7]) is 10 nM; in assay [2] (Leishmania major, 48 h, read-out: EC50 in WT), around 3100 nM. The “EC50 (WT)/EC50 (spt2^−)” value in assay [1] (ratio) is given as 310. Also, the “Effect of supplementation of ethanolamine or choline on the sensitivity in spt2^− parasites” value in assay [1] (spt2^− with EtN or choline) was “almost no effect”. The Effect on growth result in assay [2] is on record as “only minor effect on growth”. Further, the “Sensitivity of ads1^− mutant” value in assay [3] is reported as “hypersensitive”.
For `CCn1nc(C(=O)O)c(=O)c2cc3c(cc21)OCO3` [cinoxacin], the “Confirmation of synergy with itraconazole” value in assay [6] is reported as “not confirmed”.
`C=C(C)C(=O)C(=CC(=O)O)OC` [penicillic acid]: in assay [6], the “Confirmation of synergy with itraconazole” value is listed as “confirmed” and the “Synergy effect with itraconazole” value is recorded as around 2 fold.
For Mevinolin, the “EC50 (WT)/EC50 (spt2^−)” value in assay [1] (ratio) is listed as 1.0. Further, the EC50 in assay [1] (read-out: EC50 in spt2^−; spt2^− promastigotes, 48 hours) amounted to 15000 nM; in assay [2] (read-out: EC50 in WT; LV39 WT promastigotes, 48 hours), 15000 nM. Besides, the “Selectivity” value in assay [1] (spt2^− versus LV39 WT) is given as “did not cause the extreme hypersensitivity”.

Values taken from US20080119483A1, “COMPOSITIONS AND METHODS FOR INHIBITING PROTOZOAN GROWTH” (priority 2006, published 2008).
